1 molecule from paper PMC8597724, “Kanglemycin A Can Overcome Rifamycin Resistance Caused by ADP-Ribosylation by Arr Protein” (Antimicrobial Agents and Chemotherapy, 2021) can be followed below.

SMILES strings stand for the structures.

In this assay the target is T1, ArrMab (Mycobacteroides abscessus, UniProt B1MH05).
T1 construct: gene MAB_0591; N-terminal 6xHis tag (pET28), expressed in E. coli T7 Express; RED-NHS amine-labelled for MST
Kind of assay: microscale thermophoresis. The class given is binding. The text has this: microscale thermophoresis on ArrMab | ArrMab bound both antibiotics with the same Kd
On the technique in general: Microscale thermophoresis detects binding through changes in fluorescence in a small temperature gradient.

T1 sequence (B1MH05 entry or part of it): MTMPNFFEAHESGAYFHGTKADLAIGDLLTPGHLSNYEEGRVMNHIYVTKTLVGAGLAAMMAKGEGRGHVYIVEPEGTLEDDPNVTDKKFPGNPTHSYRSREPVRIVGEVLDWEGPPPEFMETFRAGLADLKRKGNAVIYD

Consider `CO[C@H]1/C=C/O[C@@]2(C)Oc3c(C)c(O)c4c(O)c(c(/C=N/N5CCN(C)CC5)c(O)c4c3C2=O)NC(=O)/C(C)=C\C=C\[C@H](C)[C@H](O)[C@@H](C)[C@@H](O)[C@@H](C)[C@H](OC(C)=O)[C@@H]1C` [rifampicin], for which binding was characterised by a dissociation constant (Kd) of 27.9 µM.

As a reminder, the Kd is a measure of binding affinity in units of concentration.
